A melting point compilation (Tetko et al.; mined from patent text by program, amines drawn as free bases though some values may be those of a salt)

| melting point | Structure (SMILES) |
| --- | --- |
| 121 to 131 °C | C[C@@H](n1cnc2cc(N3CCN(C)CC3)ccc2c1=O)[C@](O)(Cn1cncn1)c1ccc(F)cc1F |
| 184 to 187 °C | O=C(CCl)c1ccc2c(C(=O)CCl)ccc3c2c1CC3 |
| 208 to 210 °C | CCC(CC)n1ncn(-c2ccc(N3CCN(c4ccc5c(=O)n([C@H](C)[C@](O)(Cn6cncn6)c6ccc(F)cc6F)cnc5c4)CC3)cc2)c1=O |
| 112 °C | CCOC(=O)C(=CNC(C)(C)C)C(=O)c1cc(F)c(F)c(F)c1F |
| 203 to 204 °C | CS(=O)(=O)c1ccc(-c2oc3ccccc3c(=O)c2-c2ccccn2)cc1 |
| 65 to 67 °C | CCOC(=O)CCCN(C(=O)c1cccc(C(F)(F)F)c1)c1ccccc1-c1ccccc1 |
| 130 °C | CCc1oc2ccc([N+](=O)[O-])cc2c1C(=O)c1ccc(OC)cc1 |
| 107 to 112 °C | O=C1c2cc(F)ccc2OCC1C(=O)C(F)(F)F (centres undefined) |
| 64 to 66 °C | Fc1ccc(COc2ncc(F)c(NCOCc3ccccc3)n2)cc1 |
| 117 to 120 °C | N[C@@H](CO)C(=O)NC(=O)N(CCCl)N=O |
| 149 to 150 °C | CN1C(=O)C2(COc3cc4c(cc32)OCCO4)c2c(C(=O)NCc3ccc(F)cc3)cccc21 (centres undefined) |
| 122 °C | Cc1nc2c(O[C@@H]3c4ccccc4C[C@H]3O)cc(C(=O)N(C)C)cn2c1C (relative stereo) |
| 131 to 135 °C | OCc1cncn1Cc1ccccc1 |
| 184 °C | CCCn1c(CCO)nc2c(N)nc3cc(OCCCNC(=O)c4cccnc4)ccc3c21 |
| 70 to 72 °C | COC(=O)c1ccc(OCCNC(=O)C2Cc3ccccc3N2S(=O)(=O)c2ccc(-c3ccc(F)cc3)cc2)cc1 (centres undefined) |
| 99 to 100 °C | CS(=O)(=O)c1cccc(C(Cc2ccc(F)cc2)C(=O)Nc2nc3ccccc3o2)c1 (centres undefined) |

| melting point | Structure (SMILES) |
| --- | --- |
| 85 to 91 °C | O=C(N1c2ccccc2C=Cc2ccccc21)C(F)(F)F |
| 126 to 130 °C | N#CCCNC(=O)c1cccc(-c2ccc3c(c2)C(NCc2ccc(Cl)cc2Cl)CC3)c1 (centres undefined) |
| 218 to 219 °C | COc1cc2c(cc1OC)CN(CCc1ccc(NC(=O)c3cccc4c(=O)c5cccc(OC)c5sc34)cc1)CC2 |
| 108 to 110 °C | CCCCN(CCCOc1ccc(S(=O)(=O)c2c(C(C)C)cn3ccccc23)cc1)C(C)c1ccc(OC)c(OC)c1 (centres undefined) |
| 124 °C | CC(=O)OCC1OC(O)(c2ccc(Cl)cc2)C(OC(C)=O)C(OC(C)=O)C1OC(C)=O (centres undefined) |
| 107 to 109 °C | Cc1ccc(C(=O)NC(C)(C)C)c(Nc2ccc3cn[nH]c3c2)n1 |
| 281 °C | COc1c(-c2ccc(O)c(O)c2)oc2cc(O)ccc2c1=O |
| 245 to 249 °C | CC(C)(C)c1ccc(C(=O)Nc2ccc([N+](=O)[O-])cc2C(=O)O)cc1 |
| 167 to 170 °C | COC(=O)c1c(C(=O)OC)c(C(C)C)n(CCC2CC(O)CC(=O)O2)c1-c1ccc(F)cc1 (centres undefined) |
| 130 to 132 °C | CC(=C1SC(=O)NC1=O)c1ccc(NCCOc2c(-c3ccc(F)cc3)n(C)c3ccccc3c2=O)cc1 |
| 77 to 78 °C | O=C(COc1ccc(Cc2ccc(Cl)cc2)cc1)OCc1cccnc1 |
| 74 to 77 °C | O=[N+]([O-])c1cc(Cl)c(N=C=S)c(Cl)c1 |
| 172 to 173 °C | O=[N+]([O-])c1ccc(S(=O)(=O)Nc2cccc(F)c2)c([N+](=O)[O-])c1 |
| 131 °C | COc1ccc(CN(C)CCCCc2ccc(NC(=O)c3cccc4c(=O)c5cccc(F)c5[nH]c34)cc2)cc1OC |
| 117 to 119 °C | CCOCc1nc2c(N)nc3cc(-c4cccnc4)ccc3c2n1CCCCNC(=O)OC(C)(C)C |
| 143 to 144 °C | Cc1cc(C)c(S(=O)(=O)NC(CN2CCCc3cc(C)ccc32)C(F)(F)F)c(C)c1 (centres undefined) |

| Structure (SMILES) | melting point |
| --- | --- |
| CC(C)(C)C12OOC1(c1cc3cc(O[Si](C)(C)C(C)(C)C)ccc3o1)OCC2(C)C (centres undefined) | 117 to 118 °C |
| CC(C)(C)OC(=O)N1CCC(C#N)(c2ccccc2Cl)CC1 | 165 to 166 °C |
